Test results as given in patent US9655887B2, “Pharmaceutical composition and the use thereof, and application regime of said pharmaceutical composition for on-demand contraception” (BAYER PHARMA AKTIENGESELLSCHAFT, priority 2013, dated 2017).

Key:
[1] = target: EP4 subtype of the human PGE2 receptor (hEP4) (Homo sapiens, UniProt P35408); assay: cAMP antagonism test, human prostaglandin E2 (subtype EP4) receptor signal; format: cell-based; details: selectivity towards hEP4, IC50 measured by cAMP antagonism test
Excerpt: 2. Detection of Antagonism to the Human Prostaglandin E2 (Subtype EP4) Receptor Signal
(§1) The binding of PGE2 to the EP4 subtype of the human PGE2 receptor induces the activation of membrane-located adenylate cyclases and leads to the formation of cAMP. In the presence of the phosphodiesterase inhibitor IBMX, the cAMP accumulated owing to this stimulation and released by cell lysis is used in a competitive detection method. In this test, the cAMP present in the lysate competes with a fluorescence-labelled cAMP (cAMP-d2) for binding to an Eu cryptate-labelled anti-cAMP antibody.
(§2) In the absence of cellular cAMP a maximal signal is produced, which is attributable to the binding of this cAMP-d2 molecule to the antibody. After excitation of the […] at 337 nm, there is a fluorescence resonance energy transfer (FRET) to the Eu cryptate molecules of the anti-cAMP antibody (labelled therewith), followed by a long-lasting emission signal at 665 nm (and at […]). Both signals are measured in a suitable measurement instrument with a time delay, i.e. after decay of the background fluorescence. Any increase in the low FRET signal caused by prostaglandin E2 administration (measured as well ratio change=emission665nm/emission620nm*10000) indicates the action of antagonists.
2.2.1. Test for Antagonism (Data Per Well of a 384-Well Plate):
(§3) To a test plate with the substance solutions already added (0.05 μl; 100% DMSO, concentration range from 0.8 nM-16.5 uM) were added 4 μl of a cAMP-d2/cell suspension (312500 cells/ml). After a 20-minute preincubation at room temperature (RT), 2 μl of a 3×PGE2 solution (0.3 nM, in PBS-IBMX) were added and incubated in the presence of the agonist for a further 60 mins at RT (volume: ˜6 μl). Next the reaction was stopped by addition of 2 μl of lysis buffer and incubated for a further 20 mins at RT before the actual measurement (volume: ˜8 μl).

human PGD receptor (hDP) = target: T1, human PGD receptor (hDP) (Homo sapiens, UniProt Q13258); assay: cAMP antagonism test, human prostaglandin D receptor signal; format: cell-based; details: selectivity towards hDP, IC50 measured by cAMP antagonism test
T1 sequence (Q13258 1-359): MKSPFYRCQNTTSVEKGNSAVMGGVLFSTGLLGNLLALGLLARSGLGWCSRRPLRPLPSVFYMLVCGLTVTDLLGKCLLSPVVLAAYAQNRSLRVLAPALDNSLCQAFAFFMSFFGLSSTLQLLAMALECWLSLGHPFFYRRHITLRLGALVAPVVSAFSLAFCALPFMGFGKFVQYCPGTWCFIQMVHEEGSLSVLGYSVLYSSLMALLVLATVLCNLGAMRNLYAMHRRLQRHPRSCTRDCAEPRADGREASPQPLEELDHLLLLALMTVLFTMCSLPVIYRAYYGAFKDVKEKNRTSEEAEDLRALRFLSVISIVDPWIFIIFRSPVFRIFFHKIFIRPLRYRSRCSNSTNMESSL
Excerpt: 3. Detection of Antagonism to the Human Prostaglandin D Receptor Signal
as §1, with “of prostaglandin D2” for “of PGE2”, “the” for “the EP4 subtype of the”, “human PGD” for “human PGE2”
as §2, with “cellular cAMP,” for “cellular cAMP”
3.2.1. Test for Antagonism (Data Per Well of a 384-Well Plate):
as §3, with “nM)” for “uM)”, “(625000” for “(312500”, “3×PGD2” for “3×PGE2”, “(6” for “(0.3”, “30” for “60”

ovulation = details: cited from earlier work

Chain of EP4 subtype of the human PGE2 receptor (hEP4) (P35408 whole entry): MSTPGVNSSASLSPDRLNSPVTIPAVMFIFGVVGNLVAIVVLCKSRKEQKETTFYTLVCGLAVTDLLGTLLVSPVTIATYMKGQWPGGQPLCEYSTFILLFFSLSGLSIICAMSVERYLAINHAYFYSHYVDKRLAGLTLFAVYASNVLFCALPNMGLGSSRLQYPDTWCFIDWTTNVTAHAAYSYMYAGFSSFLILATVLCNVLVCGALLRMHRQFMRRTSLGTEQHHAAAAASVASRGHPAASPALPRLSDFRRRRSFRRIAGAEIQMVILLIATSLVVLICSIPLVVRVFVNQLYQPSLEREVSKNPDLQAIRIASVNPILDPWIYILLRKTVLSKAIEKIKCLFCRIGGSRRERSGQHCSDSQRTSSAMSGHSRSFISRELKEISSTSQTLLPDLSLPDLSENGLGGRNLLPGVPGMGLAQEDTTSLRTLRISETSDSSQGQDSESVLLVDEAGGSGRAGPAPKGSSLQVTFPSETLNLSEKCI

Structure (SMILES)	Selectivity hEP2/hEP4 [1]	Selectivity hEP2/hDP (human PGD receptor (hDP))	cycle length (ovulation; daily administration of 400 mg over the entire cycle, increased from 27.2+/−2.4 days (Edelmann et al. 2010))	increase in ovulatory dysfunction (ovulation; daily oral administration of 400 mg, depending on time and duration of administration (Edelmann et al. 2013))	delay of ovulation (ovulation; 25 mg on 9 successive days, in 4 of 6 patients (Pall et al.))
COC(C)CNC(=O)c1ccc2nn(CC3CN(C(=O)c4ccc(Cl)cc4)C3)cc2c1C (single isomer, unassigned) [Example 140, (S or R)-2-{[1-(4-chlorobenzoyl)azetidin-3-yl]methyl}-N-(2-methoxypropyl)-4-methyl-2H-indazole-5-carboxamide]	xxx (xxx >100)	xxx (xxx >100)			
Cc1c(C(=O)NCC2COCCO2)ccc2nn(CC3CN(C(=O)c4ccc(Cl)cc4)C3)cc12 (single isomer, unassigned) [Example 143, (S or R)-2-{[1-(4-chlorobenzoyl)azetidin-3-yl]methyl}-N-(1,4-dioxan-2-yl-methyl)-4-methyl-2H-indazole-5-carboxamide]	xxx (xxx >100)	xxx (xxx >100)			
Cc1c(C(=O)NCC2CCCCO2)ccc2nn(CC3CN(C(=O)c4ccc(Cl)cc4)C3)cc12 (single isomer, unassigned) [Example 145, (R or S)-2-{[1-(4-chlorobenzoyl)azetidin-3-yl]methyl}-4-methyl-N-(3,4,5,6-tetrahydro-2H-pyran-2-ylmethyl)-2H-indazole-5-carboxamide]	xxx (xxx >100)	xxx (xxx >100)			
Cc1c(C(=O)NCC2CCCCO2)ccc2nn(CC3CN(C(=O)c4ccc(Cl)cc4)C3)cc12 (single isomer, unassigned) [Example 146, (S or R)-2-{[1-(4-chlorobenzoyl)azetidin-3-yl]methyl}-4-methyl-N-(3,4,5,6-tetrahydro-2H-pyran-2-ylmethyl)-2H-indazole-5-carboxamide]	xxx (xxx >100)	xxx (xxx >100)			
Cc1c(C(=O)NCC(C)OC2CCC2)ccc2nn(CC3CN(C(=O)c4ccc(Cl)cc4)C3)cc12 (single isomer, unassigned) [Example 155, (S or R)-2-{[1-(4-chlorobenzoyl)azetidin-3-yl]methyl}-N-[2-(cyclobutyloxy)-propyl]-4-methyl-2H-indazole-5-carboxamide]	xxx (xxx >100)	xxx (xxx >100)			
Cc1c(C(=O)NCC2CCCCO2)ccc2nn(CC3CCN(C(=O)c4ccc(Cl)cc4)CC3)cc12 (single isomer, unassigned) [Example 240, (R or S)-2-{[1-(4-chlorobenzoyl)piperidin-4-yl]methyl}-4-methyl-N-(3,4,5,6-tetrahydro-2H-pyran-2-ylmethyl)-2H-indazole-5-carboxamide]	xxx (xxx >100)	xxx (xxx >100)			
Cc1c(C(=O)NCC2CCCCO2)ccc2nn(CC3CCN(C(=O)c4ccc(Cl)cc4)CC3)cc12 (single isomer, unassigned) [Example 241, (S or R)-2-{[1-(4-chlorobenzoyl)piperidin-4-yl]methyl}-4-methyl-N-(3,4,5,6-tetrahydro-2H-pyran-2-ylmethyl)-2H-indazole-5-carboxamide]	xxx (xxx >100)	xxx (xxx >100)			
Cc1c(C(=O)NCC2COCCO2)ccc2nn(CC3CCN(C(=O)c4ccc(Cl)cc4)CC3)cc12 (single isomer, unassigned) [Example 415, (S or R)-2-{[1-(4-chlorobenzoyl)piperidin-4-yl]methyl}-N-(1,4-dioxan-2-yl-methyl)-4-methyl-2H-indazole-5-carboxamide]	xxx (xxx >100)	xxx (xxx >100)			
Cc1c(C(=O)NCC2CCCCO2)ccc2nn(CC3CCN(C(=O)c4ccc(Oc5ccc(C(F)(F)F)cc5)cc4)CC3)cc12 (single isomer, unassigned) [Example 416, (R or S)-4-methyl-N-(3,4,5,6-tetrahydro-2H-pyran-2-ylmethyl)-2-[(1-{4-[4-(trifluoromethyl)phenoxy]benzoyl}piperidin-4-yl)methyl]-2H-indazole-5-carboxamide]	xxx (xxx >100)	xxx (xxx >100)			
Cc1c(C(=O)NCC2CCCCO2)ccc2nn(CC3CCN(C(=O)c4ccc(Oc5ccc(C(F)(F)F)cc5)cc4)CC3)cc12 (single isomer, unassigned) [Example 417, (S or R)-4-methyl-N-(3,4,5,6-tetrahydro-2H-pyran-2-ylmethyl)-2-[(1-{4-[4-(trifluoromethyl)phenoxy]benzoyl}piperidin-4-yl)methyl]-2H-indazole-5-carboxamide]	xxx (xxx >100)	xxx (xxx >100)			
Cc1c(C(=O)NCC2COCCO2)ccc2nn(CC3CCN(C(=O)c4ccc(Oc5ccc(C(F)(F)F)cc5)cc4)CC3)cc12 (single isomer, unassigned) [Example 418, (R or S)—N-(1,4-dioxan-2-ylmethyl)-4-methyl-2-[(1-{4-[4-(trifluoromethyl)-phenoxy]benzoyl}piperidin-4-yl)methyl]-2H-indazole-5-carboxamide]	xxx (xxx >100)	xxx (xxx >100)			
Cc1c(C(=O)NCC2COCCO2)ccc2nn(CC3CCN(C(=O)c4ccc(Oc5ccc(C(F)(F)F)cc5)cc4)CC3)cc12 (single isomer, unassigned) [Example 419, (R or S)—N-(1,4-dioxan-2-ylmethyl)-4-methyl-2-[(1-{4-[4-(trifluoromethyl)-phenoxy]benzoyl}piperidin-4-yl)methyl]-2H-indazole-5-carboxamide]	xxx (xxx >100)	xxx (xxx >100)			
Cc1ccc(-c2cc(C(F)(F)F)nn2-c2ccc(S(N)(=O)=O)cc2)cc1 [celecoxib, 4-[5-(4-methylphenyl)-3-(trifluoromethyl)-1H-pyrazol-1-yl]benzenesulphonamide]			28.5 ± 2.5 days	25-30%	
CS(=O)(=O)c1ccc(C2=C(c3ccccc3)C(=O)OC2)cc1 [rofecoxib, 4-(4-mesylphenyl)-3-phenylfuran-2(5H)-one]					more than 48 hours
